The target in the assay is T1, full-length ATR (Homo sapiens, UniProt Q13535).
T1 construct: in the presence of 5 nM full-length ATR
T1 sequence (Q13535 whole entry): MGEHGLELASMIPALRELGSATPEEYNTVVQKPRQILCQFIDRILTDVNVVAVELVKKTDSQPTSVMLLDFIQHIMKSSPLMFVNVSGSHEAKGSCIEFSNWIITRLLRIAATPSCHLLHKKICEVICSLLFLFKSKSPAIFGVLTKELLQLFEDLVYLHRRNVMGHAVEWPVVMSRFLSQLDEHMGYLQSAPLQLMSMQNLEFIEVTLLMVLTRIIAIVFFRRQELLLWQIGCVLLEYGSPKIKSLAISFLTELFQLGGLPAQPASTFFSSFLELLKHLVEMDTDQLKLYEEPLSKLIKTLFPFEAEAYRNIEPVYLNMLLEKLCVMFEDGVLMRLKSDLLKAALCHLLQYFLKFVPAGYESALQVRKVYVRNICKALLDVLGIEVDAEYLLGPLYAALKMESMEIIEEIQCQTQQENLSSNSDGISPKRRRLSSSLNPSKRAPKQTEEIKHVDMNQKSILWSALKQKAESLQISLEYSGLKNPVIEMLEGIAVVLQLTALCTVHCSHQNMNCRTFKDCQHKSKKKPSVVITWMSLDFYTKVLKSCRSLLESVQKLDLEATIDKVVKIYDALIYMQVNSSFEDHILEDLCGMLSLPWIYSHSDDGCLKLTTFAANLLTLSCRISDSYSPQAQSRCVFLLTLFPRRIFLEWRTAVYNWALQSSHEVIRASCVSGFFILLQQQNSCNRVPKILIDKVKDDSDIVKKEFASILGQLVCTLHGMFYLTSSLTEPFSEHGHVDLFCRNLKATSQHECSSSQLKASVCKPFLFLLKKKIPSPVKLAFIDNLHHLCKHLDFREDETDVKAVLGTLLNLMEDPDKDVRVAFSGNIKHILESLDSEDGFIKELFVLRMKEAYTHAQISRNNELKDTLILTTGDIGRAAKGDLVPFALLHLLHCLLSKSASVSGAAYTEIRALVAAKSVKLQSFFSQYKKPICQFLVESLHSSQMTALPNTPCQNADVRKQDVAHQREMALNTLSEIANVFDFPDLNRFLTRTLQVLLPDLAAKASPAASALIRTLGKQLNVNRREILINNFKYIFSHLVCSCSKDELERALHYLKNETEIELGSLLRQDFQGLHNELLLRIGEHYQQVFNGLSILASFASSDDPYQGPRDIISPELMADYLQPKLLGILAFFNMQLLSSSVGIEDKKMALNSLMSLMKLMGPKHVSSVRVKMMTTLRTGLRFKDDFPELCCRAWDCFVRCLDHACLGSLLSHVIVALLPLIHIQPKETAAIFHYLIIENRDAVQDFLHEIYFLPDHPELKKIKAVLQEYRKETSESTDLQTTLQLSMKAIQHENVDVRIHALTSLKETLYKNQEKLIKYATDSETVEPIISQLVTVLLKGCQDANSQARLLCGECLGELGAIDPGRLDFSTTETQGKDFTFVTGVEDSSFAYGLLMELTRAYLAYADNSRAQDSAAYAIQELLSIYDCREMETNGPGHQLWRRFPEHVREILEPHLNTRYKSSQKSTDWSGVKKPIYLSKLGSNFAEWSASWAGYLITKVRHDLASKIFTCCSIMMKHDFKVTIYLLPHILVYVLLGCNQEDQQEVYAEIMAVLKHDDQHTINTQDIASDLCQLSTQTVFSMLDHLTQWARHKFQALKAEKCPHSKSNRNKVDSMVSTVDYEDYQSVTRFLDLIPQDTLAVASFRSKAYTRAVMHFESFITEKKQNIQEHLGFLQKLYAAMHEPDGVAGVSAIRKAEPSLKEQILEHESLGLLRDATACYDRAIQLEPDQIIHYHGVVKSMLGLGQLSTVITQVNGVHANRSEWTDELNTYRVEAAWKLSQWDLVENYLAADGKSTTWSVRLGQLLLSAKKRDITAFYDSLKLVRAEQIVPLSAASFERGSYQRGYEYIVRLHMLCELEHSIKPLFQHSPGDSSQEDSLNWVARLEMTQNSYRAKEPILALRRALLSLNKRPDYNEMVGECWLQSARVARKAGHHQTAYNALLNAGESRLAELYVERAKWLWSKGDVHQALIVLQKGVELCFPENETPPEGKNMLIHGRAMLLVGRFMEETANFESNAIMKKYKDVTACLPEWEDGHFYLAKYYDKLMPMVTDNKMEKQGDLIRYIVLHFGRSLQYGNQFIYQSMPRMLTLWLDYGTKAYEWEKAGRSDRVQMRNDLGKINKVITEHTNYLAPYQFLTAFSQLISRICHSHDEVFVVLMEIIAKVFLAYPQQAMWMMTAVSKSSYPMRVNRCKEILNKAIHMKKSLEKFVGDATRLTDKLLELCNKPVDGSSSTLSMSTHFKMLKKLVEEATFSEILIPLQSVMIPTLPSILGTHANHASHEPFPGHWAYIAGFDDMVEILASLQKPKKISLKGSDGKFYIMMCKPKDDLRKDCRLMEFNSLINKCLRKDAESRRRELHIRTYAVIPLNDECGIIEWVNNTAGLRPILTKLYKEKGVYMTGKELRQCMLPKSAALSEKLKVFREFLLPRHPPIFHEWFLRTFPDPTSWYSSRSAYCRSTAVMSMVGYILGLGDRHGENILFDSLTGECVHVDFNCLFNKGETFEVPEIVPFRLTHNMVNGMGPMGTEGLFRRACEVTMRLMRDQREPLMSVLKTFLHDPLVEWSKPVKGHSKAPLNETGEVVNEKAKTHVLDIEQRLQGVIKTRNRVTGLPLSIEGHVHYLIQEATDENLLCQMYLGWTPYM
The experiment in a line: ATR Inhibition Assay (radioactive-phosphate incorporation). Format: biochemical. The conditions noted are these: Ki(app); 5 nM full-length ATR, 10 μM ATP, 800 μM target peptide, 25° C. How it is done: Test compounds were screened for their ability to inhibit ATR kinase using a radioactive-phosphate incorporation assay. Assays were carried out in a mixture of 50 mM
Tris/HCl (pH 7.5), 10 mM MgCl2 and 1 mM DTT. Final substrate concentrations were 10 μM [γ-33P]ATP (3 mCi 33 P ATP/mmol ATP, Perkin Elmer) and 800 μM target peptide ([…]). Assays were carried out at 25° C. in the presence of 5 nM full-length ATR. An assay stock buffer solution was prepared containing all of the reagents listed above, with the exception of ATP and the test compound of interest. […] The plate was pre-incubated for 10 minutes at 25° C. and the reaction initiated by addition of 15 μL [γ-33P]ATP (final concentration 10 μM).
The reaction was stopped after […] by the addition of 30 μL 0.1M phosphoric acid containing 2 mM ATP. A multiscreen phosphocellulose filter 96-well plate (Millipore, Cat no. MAPHN0B50) was pretreated with 100 μL 0.2M phosphoric acid prior to the addition of 45 μL of the stopped assay mixture. The plate was washed with 5×200 μL 0.2M phosphoric acid.
After removing mean background values for all of the data points, Ki(app) data were calculated from non-linear regression analysis of the initial rate data using the Prism software package (GraphPad Prism version 3.0cx for Macintosh, GraphPad Software, San Diego Calif., USA).
In the case of `CCS(=O)(=O)N1CCN(c2cnc(N)c(-c3nc(-c4ccccc4)no3)n2)CC1` [Compound I-19, 5-(4-(ethylsulfonyl)piperazin-1-yl)-3-(3-phenyl-1,2,4-oxadiazol-5-yl)pyrazin-2-amine], the Ki lay within 100 to 1000 nM.
The result for `CNC(=O)[C@H]1CCN(c2cnc(N)c(-c3nc4ccc(C)cc4[nH]3)n2)C1` [Compound I-70, (S)-1-(5-amino-6-(6-methyl-1H-benzo[d]imidazol-2-yl)pyrazin-2-yl)-N-methylpyrrolidine-3-carboxamide] reads 1000 to 10000 nM; that for `Nc1ncc(N2CCN(C(=O)N3CCCC3)CC2)nc1C(=O)Nc1ccccn1` [Compound I-239, 3-amino-N-(pyridin-2-yl)-6-(4-(pyrrolidine-1-carbonyl)piperazin-1-yl)pyrazine-2-carboxamide], 1000 to 10000 nM; that for `CCS(=O)(=O)N1CCN(c2cnc(N)c(-c3nc4cccnc4[nH]3)n2)CC1` [Compound I-56, 5-(4-(ethylsulfonyl)piperazin-1-yl)-3-(3H-imidazo[4,5-b]pyridin-2-yl)pyrazin-2-amine], 100 to 1000 nM.
The result for `Cc1cccc(C)c1C(=O)N1CCN(c2cnc(N)c(C(=O)Nc3ccccn3)n2)CC1` [Compound I-262, 3-amino-6-(4-(2,6-dimethylphenylcarbonyl)piperazin-1-yl)-N-(pyridin-2-yl)pyrazine-2-carboxamide] reads 100 to 1000 nM.
As for `CC(=O)N[C@H]1CCN(c2cnc(N)c(-c3nc4ccccc4[nH]3)n2)C1` [Compound I-185, (S)-N-(1-(5-amino-6-(1H-benzo[d]imidazol-2-yl)pyrazin-2-yl)pyrrolidin-3-yl)ethanamide], the figure is 100 to 1000 nM; as for `CCOC(=O)N1CCN(c2cnc(N)c(-c3nnc(-c4ccccc4)o3)n2)CC1` [Compound I-232, ethyl 4-(5-amino-6-(5-phenyl-1,3,4-oxadiazol-2-yl)pyrazin-2-yl)piperazine-1-carboxylate], 100 to 1000 nM.
On to `CCC(=O)N1CCC2(CCN(c3cnc(N)c(-c4nnc(-c5ccc(CNC)cc5)o4)n3)C2)C1` (centres unmarked) [Compound I-342, 1-(7-(5-Amino-6-(5-(4-((methylamino)methyl)phenyl)-1,3,4-oxadiazol-2-yl)pyrazin-2-yl)-2,7-diazaspiro[4.4]nonan-2-yl)propan-1-one], for which the Ki was 100 to 1000 nM.
As for `CNCc1ccc(-c2nnc(-c3nc(N4CCC[C@H]4C)cnc3N)o2)cc1` [Compound I-362, 3-[5-[4-(Methylaminomethyl)phenyl]-1,3,4-oxadiazol-2-yl]-5-[(2R)-2-methylpyrrolidin-1-yl]pyrazin-2-amine], the figure is 100 to 1000 nM; as for `Nc1ncc(N2CCN(S(=O)(=O)c3c(F)cccc3F)CC2)nc1-c1nnc(-c2ccccc2)o1` [Compound I-202, 5-(4-(2,6-difluorophenylsulfonyl)piperazin-1-yl)-3-(5-phenyl-1,3,4-oxadiazol-2-yl)pyrazin-2-amine], 100 to 1000 nM.
As to `Nc1ncc(N2CCN(C(=O)COc3ccccc3)CC2)nc1-c1nnc(-c2ccccc2)o1` [Compound I-195, 1-(4-(5-amino-6-(5-phenyl-1,3,4-oxadiazol-2-yl)pyrazin-2-yl)piperazin-1-yl)-2-phenoxyethanone], the Ki is 1000 to 10000 nM.
As for `CNCc1ccc(-c2nnc(-c3nc(C4CC4C(=O)NCC(O)CO)cnc3N)o2)cc1` (centres unmarked) [Compound I-376, 2-[5-Amino-6-[5-[4-(methylaminomethyl)phenyl]-1,3,4-oxadiazol-2-yl]pyrazin-2-yl]-N-(2,3-dihydroxypropyl)cyclopropanecarboxamide], the figure is 100 to 1000 nM; as for `CS(=O)(=O)N1CCN(c2cnc(N)c(-c3nc4ccccc4[nH]3)n2)CC1` [Compound I-86, 3-(1H-benzo[d]imidazol-2-yl)-5-(4-(methylsulfonyl)piperazin-1-yl)pyrazin-2-amine], 100 to 1000 nM; as for `CN(C)S(=O)(=O)N1CCN(c2cnc(N)c(-c3nnc(-c4ccccc4)o3)n2)CC1` [Compound I-83, 4-(5-amino-6-(5-phenyl-1,3,4-oxadiazol-2-yl)pyrazin-2-yl)-N,N-dimethylpiperazine-1-sulfonamide], 100 to 1000 nM.
The result for `CC(=O)N[C@@H]1CCN(c2cnc(N)c(-c3nc4ccc(C)cc4[nH]3)n2)C1` [Compound I-9, (R)-N-(1-(5-amino-6-(6-methyl-1H-benzo[d]imidazol-2-yl)pyrazin-2-yl)pyrrolidin-3-yl)ethanamide] reads 1000 to 10000 nM.
As for `CCS(=O)(=O)N1CC=C(c2cnc(N)c(-c3nc4c(F)cccc4[nH]3)n2)CC1` [Compound I-155, 5-(1-(ethylsulfonyl)-1,2,3,6-tetrahydropyridin-4-yl)-3-(4-fluoro-1H-benzo[d]imidazol-2-yl)pyrazin-2-amine], the figure is less than 100 nM.
Consider `CCS(=O)(=O)N1CCN(c2cnc(N)c(-c3ncc(-c4ccccc4)o3)n2)CC1` [Compound I-36, 5-(4-(ethylsulfonyl)piperazin-1-yl)-3-(5-phenyloxazol-2-yl)pyrazin-2-amine], for which the Ki is 100 to 1000 nM.
For `Nc1ncc(N2CCN(C(=O)c3ccccn3)CC2)nc1-c1nc2ccccc2[nH]1` [Compound I-176, (4-(5-amino-6-(1H-benzo[d]imidazol-2-yl)pyrazin-2-yl)piperazin-1-yl)(pyridin-2-yl)methanone], the Ki was 100 to 1000 nM.
As for `Nc1ncc(N2CCN(C(=O)COc3ccccc3)CC2)nc1C(=O)Nc1ccccn1` [Compound I-143, 3-amino-6-(4-(2-phenoxyethanoyl)piperazin-1-yl)-N-(pyridin-2-yl)pyrazine-2-carboxamide], the Ki lay in the range of 1000 to 10000 nM.
Take `Nc1ncc(C2=CCN(C(=O)Cc3ccccc3)CC2)nc1-c1nnc(-c2ccccc2)o1` [Compound I-201, 1-(4-(5-amino-6-(5-phenyl-1,3,4-oxadiazol-2-yl)pyrazin-2-yl)-5,6-dihydropyridin-1(2H)-yl)-2-phenylethanone]: the Ki was less than 100 nM.
As for `Cc1cccc(C)c1C(=O)N1CCN(c2cnc(N)c(-c3nc4ccccc4[nH]3)n2)CC1` [Compound I-275, (4-(5-amino-6-(1H-benzo[d]imidazol-2-yl)pyrazin-2-yl)piperazin-1-yl)(2,6-dimethylphenyl)methanone], the figure is 1000 to 10000 nM.
As for `Nc1ncc(N2CCN(C(=O)c3cccnc3)CC2)nc1C(=O)Nc1ccccn1` [Compound I-146, 3-amino-N-(pyridin-2-yl)-6-(4-(pyridine-3-carbonyl)piperazin-1-yl)pyrazine-2-carboxamide], the figure is 1000 to 10000 nM; as for `CC(=O)N1CC=C(c2cnc(N)c(-c3nnc(-c4ccccc4)o3)n2)CC1` [Compound I-125, 1-(4-(5-amino-6-(5-phenyl-1,3,4-oxadiazol-2-yl)pyrazin-2-yl)-5,6-dihydropyridin-1(2H)-yl)ethanone], less than 100 nM.
As for `CCS(=O)(=O)N1CCN(c2cnc(N)c(-c3cn4ccsc4n3)n2)CC1` [Compound I-62, 5-(4-(ethylsulfonyl)piperazin-1-yl)-3-(imidazo[2,1-b]thiazol-6-yl)pyrazin-2-amine], the figure is 1000 to 10000 nM; as for `CCN1CCN(c2cnc(N)c(-c3nnc(-c4ccc(CNC)cc4)o3)n2)CC1` [Compound I-322, 5-(4-Ethylpiperazin-1-yl)-3-[5-[4-(methylaminomethyl)phenyl]-1,3,4-oxadiazol-2-yl]pyrazin-2-amine], 100 to 1000 nM; as for `CCC(=O)N(C)C1CCN(c2cnc(N)c(-c3nnc(-c4ccc(CNC)cc4)o3)n2)CC1` [Compound I-365, N-(1-(5-Amino-6-(5-(4-((methylamino)methyl)phenyl)-1,3,4-oxadiazol-2-yl)pyrazin-2-yl)piperidin-4-yl)-N-methylpropionamide], 100 to 1000 nM.
With `CC(C)(C)C(=O)N1CC=C(c2cnc(N)c(-c3nc4ccccc4[nH]3)n2)CC1` [Compound I-214, 1-(4-(5-amino-6-(1H-benzo[d]imidazol-2-yl)pyrazin-2-yl)-5,6-dihydropyridin-1(2H)-yl)-2,2-dimethylpropan-1-one], the Ki fell in the range of 100 to 1000 nM.
The result for `CN(C)C(=O)N1CC=C(c2cnc(N)c(-c3nc4ccccc4[nH]3)n2)CC1` [Compound I-234, 4-(5-amino-6-(1H-benzo[d]imidazol-2-yl)pyrazin-2-yl)-N,N-dimethyl-5,6-dihydropyridine-1(2H)-carboxamide] reads 100 to 1000 nM; that for `Cc1ccc2nc(-c3nc(C4=CCC5(CC4)OCCO5)cnc3N)[nH]c2c1` [Compound I-22, 3-(6-methyl-1H-benzo[d]imidazol-2-yl)-5-(1,4-dioxaspiro[4.5]dec-7-en-8-yl)pyrazin-2-amine], 100 to 1000 nM.
As for `COC(=O)N1CC=C(c2cnc(N)c(-c3nnc(-c4ccccc4)o3)n2)CC1` [Compound I-228, methyl 4-(5-amino-6-(5-phenyl-1,3,4-oxadiazol-2-yl)pyrazin-2-yl)-5,6-dihydropyridine-1(2H)-carboxylate], the figure is less than 100 nM; as for `Nc1ncc(C2=CCN(S(=O)(=O)Cc3ccccc3)CC2)nc1-c1nnc(-c2ccccc2)o1` [Compound I-100, 5-(1-(benzylsulfonyl)-1,2,3,6-tetrahydropyridin-4-yl)-3-(5-phenyl-1,3,4-oxadiazol-2-yl)pyrazin-2-amine], less than 100 nM; as for `CCS(=O)(=O)N1CCN(c2cnc(N)c(-c3cc4ccccc4o3)n2)CC1` [Compound I-29, 3-(benzofuran-2-yl)-5-(4-(ethylsulfonyl)piperazin-1-yl)pyrazin-2-amine], 100 to 1000 nM.

Values taken from patent publication US8410112B2, “Compounds useful as inhibitors of ATR kinase” (Vertex Pharmaceuticals Incorporated, priority 2008, dated 2013).
